From patent USRE49311E1, “Bacillus thuringiensis RTI545 compositions and methods of use for benefiting plant growth and controlling plant pests” (priority 2016, dated 2022) come the findings set out here.

One test concerns lesion nematode. Description: Soil drench tests against lesion nematode. It counts as in vivo, Pratylenchus penetrans. The text has this:
Similar tests wherein RTI545 was applied as a soil drench at the rate of 2.5×10^11 CFU/ha provided 71% reduction in lesion nematode numbers per root compared to 95% for abamectin. In soil drench tests applied to pots in the greenhouse with soil infested with lesion nematode eggs and adults (2000 individuals/pot) RTI545 at the rate of 2.5×10^13 CFU/ha provided 80% reduction in nematode numbers per root compared to 86% reduction by cadusafos.

In test [1] the test system is soybean cyst nematode (Heterodera glycines). As to the kind of experiment: Soybean cyst nematode soil drench assay, greenhouse. It counts as in vivo. Conditions: day 70.
The test system of test [2] is root knot nematode (RKN) eggs. Description: Root knot nematode egg hatching assay, 24-well plates. Type of test: in vivo, Meloidogyne incognita/hapla. The conditions noted are these: for % Hatching after 7 days / % Hatching after 14 days: mean of 6 replicates ± SD. The method, then:
The following day, the optical density (OD) of 1:100 dilutions was measured at 600 nm to estimate the volume needed for inoculation of fermentation flasks. […] Bacteria were grown overnight (for 16 h) at 200 rpm at 30° C. Two ml of bacterial culture was saved to measure the OD and colony forming units (CFU). The remaining culture was centrifuged (2500 rpm, 15 min) and the supernatant was filter-sterilized through a 0.22 μm filter. […] The supernatant was kept at 4° C. until the initiation of the bioassay. […] A mixed culture of root knot nematodes (Meloidogyne incognita and M. hapla) was used. Nematode eggs were extracted from tomato roots by bleaching and cleaned using an Opti-prep centrifugation step followed by two washes in water. Before setting up the hatching assay, the percentage of early (eggs with a visible embryo) and late eggs (eggs with differentiated juveniles inside; […] Only fresh eggs (collected at the day of the initiation of the assay) were used for the bioassay. The assay was performed in 24-well tissue culture plates. […] Antibiotics were suspended in sterile distilled water. The final concentration of antibiotics in testing plates was 75 mg/L of penicillin and 75 mg/L of streptomycin. […] The addition of methyl cellulose increases the accuracy of adding the same number of inoculum to each treatment. The treatments were set up in 6 replications. Each plate was covered, wrapped in aluminum foil and placed in an incubator set at 25° C. […] For each time point and treatment, the percent hatching was calculated according to the formula: […] All treatments were supplemented with antibiotics (75 mg/L of penicillin and 75 mg/L of streptomycin) to prevent contamination. Data are means from 6 replicates± standard deviation of the means.

The subject of test [3] is root knot (RKN) nematode juveniles (J2). As to the kind of experiment: Nematode chemotaxis assay on agar plates. The conditions noted are these: for Cf (chemotaxis factor) at 3 h / Cf (chemotaxis factor) at 5 h: Cf<0.5 repellent, >2 attractant. Type of test: in vivo, Meloidogyne spp. The method, then: Similarly, activity of RTI545 against nematodes may also be due to compound(s) produced by the strain. A nematode chemotaxis assay on agar plates was conducted as described below to evaluate response of root knot (RKN) nematode juveniles (J2) to different concentrations of kanosamine and RTI545 supernatant in vitro.
The test arena is shown schematically in FIG. 6. Nine-cm-diameter Petri dishes were filled with 15 ml 0.75% Phytagel (including 0.1% MgSO4.7H2O). […] was used, instead of water agar, so that nematode tracks could be observed under a microscope. Wells of 0.5 cm diameter which can accommodate approximately 50 μl of solution were made at opposite sides of the dishes at 2 cm from the center. The test samples were applied in the wells and left to diffuse for 1 hour with lids on the dishes, so a gradient around the wells could be established. Then, 75-100 J2 stage root-knot nematodes suspended in 5 μl of sterile distilled water were placed by pipette in the center 1.5 cm-diameter circle of the plate. When the surface tension of the water suspension was lost, the dishes were covered with lids and incubated in the dark on a leveled platform at 25° C. for […]. After incubation the plates were transferred to 4° C. to stop nematode movement for scoring at 2 h, 3 h and 5 h after setup. Three replicates were done for each test material.
For scoring, the test arena was divided into sixteen zones, designated as 1-8 for attractive zones and a-h for repellent zones as shown in FIG. 6A. Nematodes attracted to the test substance would tend to move to the numbered (attractive) zones, resulting in clustering along the axis parallel to the orientation of the wells. Repelled nematodes would tend to move to the lettered (repellant) zones, resulting in clustering along the axis perpendicular to the orientation of the wells. The chemotaxis factor (Cf) was calculated by dividing the total number of nematodes in the attractant zones by the total number of nematodes in the repellent zones. A Cf greater than 2 meant attraction for the nematodes, while lower than 0.5 indicated repellence, and 0.5 to 2 was considered neutral.

Test [4] relates to wireworm (Melanotus spp.). Description: In-furrow corn field trials, wireworm-infested plots (7 trials, North America). Type of test: in vivo. The conditions noted are these: vs untreated, average of 7 trials; bifenthrin 56 g ai/Ha, RTI545 3 × 10^11 CFU/Ha, tefluthrin 168 g ai/Ha. The text has this:
(§1) In-furrow treatments of corn with RTI545 were studied in multiple field trials in various locations in North America to evaluate effectiveness against wireworm (Melanotus spp.) and corn rootworm (Diabrotica spp.). The effects on yield and crop damage of several treatments compared to untreated controls for the individual North America trials were aggregated and summarized as an average for the trial in the following tables as % yield increase and % reduction in damage compared to the untreated controls. Seven trials were evaluated for wireworm. Eighteen trials were evaluated for corn rootworm. Five trials with heavy damage from corn rootworm were averaged separately.

Test [5] concerns corn rootworm (Diabrotica spp.). As to the kind of experiment: In-furrow corn field trials, corn rootworm-infested plots (18 trials, North America). It counts as in vivo. The conditions noted are these: vs untreated, bifenthrin 112 g ai/Ha, RTI545 1.24 × 10^12 CFU/Ha, tefluthrin 168 g ai/Ha; for % Damage reduction, Heavy CRW Pressure / % Yield Increase, Heavy CRW Pressure: 5 trials; for % Damage reduction / % Yield Increase: 18 trials.
Excerpt: as §1

The test system of test [6] is Southern Corn Rootworm (SCRW) larvae. Description: SCRW larvae choice feeding assay of corn seedlings. Conditions: for Mean percent of SCRW larvae on treated portion of the filter paper / Mean percent of SCRW larvae on untreated portion of the filter paper: 3 days.
Protocol: Repellency was measured using a choice in vitro plate feeding assay of corn seedlings by SCRW larvae and scored after 72 hours as the percentage of SCRW larvae on the non-treated side of the plate. In the case of no repellency, an equal distribution of 50% on both the treated and non-treated half of the plate would be expected, indicating 0% repellency. In this experiment, the Bacillus thuringiensis RTI545 and Bacillus thuringiensis subsp. kurstaki HD-1 (HD-1), were evaluated in comparison to a water control after 3 days in the assay.
The choice feeding assay for SCRW larvae using corn seedlings was also repeated to compare RTI545 to another Bacillus thuringiensis strain FD30 and kanosamine. […] Repellency was measured using a choice in vitro plate feeding assay of corn seedlings by SCRW larvae and scored after 72 hours as the percentage of SCRW larvae on the non-treated side of the plate. In the case of no repellency, an equal distribution of 50% on both the treated and non-treated half of the plate would be expected, indicating 0% repellency.
Where [7] appears, read: RTI545 2.5 × 10^12 CFU/ha, Abamectin 0.01 ppm, VENERATE XC 500 mg/plant.
The mark [8] stands for this setting: RTI545 2.5 × 10^13 CFU/ha, Abamectin 0.1 ppm.
The mark [9] stands for this setting: kanosamine 100 μg/ml (alone or + FD30).

Take `CCOP(=O)(SC(C)CC)SC(C)CC` (stereo not shown) [cadusafos]: the “Reduction in nematode numbers per root” value in the test on lesion nematode (soil drench to greenhouse pots, eggs and adults 2000 individuals/pot, RTI545 2.5×10^13 CFU/ha) was 86%.

Take abamectin: in test [1] (setting [7]), the “% Reduction of cysts” value came out at 79% and the “Number of cysts extracted” value is listed as 31. In test [1] (setting [8]), the “% Reduction of cysts” value is 96% and the “Number of cysts extracted” value was 7. In addition, in test [2] (abamectin 0.1 ppm), the “% Hatching after 7 days” value stood at 24.4 ± 2.9% and the “% Hatching after 14 days” value came to 27.8 ± 5.7%. Also, in test [2] (abamectin 1.0 ppm), the “% Hatching after 7 days” value came out at 4.9 ± 0.9% and the “% Hatching after 14 days” value worked out at 8.5 ± 1.6%. The same compound showed an Egg hatching inhibition in test [2] (rate of 1 ppm, after 14 days) of 72%. Besides, the “Reduction in lesion nematode numbers per root” value in the test with lesion nematode (soil drench, RTI545 2.5×10^11 CFU/ha) turned out to be 95%.

Turning to `CC(=O)O` [Acetic Acid], in test [3] (acetic acid 1%), the “Cf (chemotaxis factor) at 3 h” value worked out at 0.45 and the “Cf (chemotaxis factor) at 5 h” value worked out at 0.4. For the same compound, in test [3] (acetic acid 1%, data not shown), the “Cf (chemotaxis factor) at 2 h” value is “neutral”.

Turning to `Cc1c(F)c(F)c(COC(=O)[C@@H]2[C@H](/C=C(\Cl)C(F)(F)F)C2(C)C)c(F)c1F` (racemic) [Tefluthrin], the “% Yield Increase” value in test [4] came to 5%. Also, in test [5], the “% Damage reduction, Heavy CRW Pressure” value came out at 52%; the “% Yield Increase, Heavy CRW Pressure” value is listed as 16%; the “% Damage reduction” value amounted to 46%; the “% Yield Increase” value was 3%.

In the case of kanosamine, the “Mean percent of SCRW larvae on treated portion of the filter paper” value in test [6] (kanosamine 10 μg/ml) and in test [6] (setting [9]) was 16.67% throughout. Moreover, the “Mean percent of SCRW larvae on untreated portion of the filter paper” value in test [6] (kanosamine 10 μg/ml) and in test [6] (setting [9]) was 83.33% in each case. In addition, the “Repellent effects on SCRW” value in test [6] (all dilution rates between 0.1 μg/ml and 100.0 μg/ml, at 24 h, two separate bioassays) is given as “repellent effects”. In test [6] (at 3 d, choice assay), the “Feeding damage on corn” value was “minimal feeding damage”. Also, the “Repellency to SCRW” value in test [6] (second test, filter paper treated with 30.0 ug/ml, out to 5 days) is “complete repellency”. Also, the “Avoidance response of SCRW” value in test [6] (treated filter paper at 10 and 100 μg/ml) is on record as 80%. Also, the “Cf (chemotaxis factor)” value in test [3] (all tested kanosamine rates (1, 10 and 100 μg/ml) and all time points) was “higher than 0.5”. Besides, the entries for the “Cf (chemotaxis factor) at 3 h” value in test [3] (kanosamine 1 μg/ml), in test [3] (kanosamine 10 μg/ml) and in test [3] (kanosamine 100 μg/ml) were 1.0, 0.6 and 0.6, respectively. Moreover, the “Cf (chemotaxis factor) at 5 h” value in test [3] (kanosamine 1 μg/ml) is on record as 1.0; in test [3] (kanosamine 10 μg/ml) it was 0.7; in test [3] (kanosamine 100 μg/ml), 0.7. In test [2] (after seven days), the “Hatching rate higher than in water control” value is on record as “up to 80%”. In addition, the “% Hatching after 7 days” value in test [2] (kanosamine 1 μg/ml) turned out to be 35.9 ± 5.2%; in test [2] (kanosamine 10 μg/ml), 39.4 ± 3%; in test [2] (kanosamine 100 μg/ml) it was 32.4 ± 4.8%. For the same compound, the “% Hatching after 14 days” value in test [2] (kanosamine 1 μg/ml) is 40.1 ± 6.8%; in test [2] (kanosamine 10 μg/ml), 42.1 ± 12.1%; in test [2] (kanosamine 100 μg/ml), 41.6 ± 6.8%.

With `Cc1c(COC(=O)[C@@H]2[C@H](/C=C(\Cl)C(F)(F)F)C2(C)C)cccc1-c1ccccc1` (racemic) [Bifenthrin], the “% Yield Increase” value in test [4] is reported as 5%. In test [5], the “% Damage reduction, Heavy CRW Pressure” value turned out to be 45%; the “% Yield Increase, Heavy CRW Pressure” value was 11%; the “% Damage reduction” value came out at 42%; the “% Yield Increase” value is listed as 4%.
